Assay results as given in patent publication US6673791B2, “Non-nucleoside reverse transcriptase inhibitors” (Boehringer Ingelheim (Canada) Ltd., priority 2001, dated 2004).
Like-named read-outs stand apart in the source and are kept apart here.

Experiments:
[1] = molecular target: T1, K103N/Y181C double mutant RT (HIV-1 RT) (Human immunodeficiency virus type 1 group M subtype B, UniProt P03366, K702N/Y780C); test: biochemical
T1 construct: mutations that occur in the reverse transcriptase segment of the pol gene
From the text: (§1) Based upon testing of these compounds, as described below, it is known that they inhibit the RNA-dependent DNA polymerase activity of HIV-1 RT. […] Utilising the Reverse Transcriptase (RT) Assay described below, compounds can be tested for their ability to inhibit the RNA-dependent DNA polymerase activity of HIV-1 RT. Certain specific compounds described in the Examples which appear below, were so tested. The results of this testing appear in Table 4 as IC50 (nM) and Table 5 as EC50 (nM).
(§2) Reverse TranscriptASE (RT) Assays
(§3) The assays are as described in WO 01/96338A1, the contents of which are hereby incorporated herein. The results are listed in Tables 8 as IC50(nM) and EC50(nM).

[2] = molecular target: T2, Y188L mutant RT (HIV-1 RT) (Human immunodeficiency virus type 1 group M subtype B, UniProt P03366, Y787L); test: biochemical
T2 construct: mutations that occur in the reverse transcriptase segment of the pol gene
From the text: as §1, §2, §3

WT RT (HIV-1 RT) = molecular target: T3, WT RT (HIV-1 RT) (Human immunodeficiency virus type 1 group M subtype B, UniProt P03366); test: biochemical
T3 construct: mutations that occur in the reverse transcriptase segment of the pol gene
From the text: as §1, §2, §3

[3] = molecular target: T4, V106A mutant RT (HIV-1 RT) (Human immunodeficiency virus type 1 group M subtype B, UniProt P03366, V705A); test: biochemical
T4 construct: mutations that occur in the reverse transcriptase segment of the pol gene
From the text: as §1, §2, §3

[4] = system: K103N/Y181C (HIV-1 double mutant strain); test: EC50 assay, K103N/Y181C strain; assay type: cell-based
From the text: as §2, §3

[5] = system: WT RT (HIV-1 wild type strain); test: EC50 assay, WT RT strain; assay type: cell-based
From the text: as §2, §3

[6] = read-out: IC50 K103N/Y181C, K103N/Y181C double mutant RT
[7] = read-out: IC50 WT RT, wild type RT
[8] = read-out: EC50 K103N/Y181C, K103N/Y181C double mutant
[9] = read-out: EC50 WT RT, wild type
[10] = Human immunodeficiency virus 1, read-out: EC50 K103N/Y181C (nM), K103N/Y181C double mutant
[11] = Human immunodeficiency virus 1, read-out: EC50 WT RT (nM)

| Structure (SMILES) | IC50 [1, 6] [nM] | IC50 ([2]; read-out: IC50 Y188L) [nM] | IC50 (WT RT (HIV-1 RT); [7]) [nM] | IC50 ([3]; read-out: IC50 V106A) [nM] | EC50 [4, 8] [nM] | EC50 [5, 9] [nM] | IC50 ([3]; IC50 V106A (nM)) [nM] | IC50 ([1]; K103N/Y181C double mutant RT, read-out: IC50 K103N/Y181C) [nM] | IC50 (WT RT (HIV-1 RT); wild type RT, read-out: IC50 WT RT) [nM] | EC50 ([4]; K103N/Y181C double mutant, read-out: EC50 K103N/Y181C) [nM] | EC50 ([5]; wild type, read-out: EC50 WT RT) [nM] | IC50 [1] [nM] | IC50 ([2]; IC50 Y188L (nM)) [nM] | IC50 (WT RT (HIV-1 RT)) [nM] | EC50 [4, 10] [nM] | EC50 [5, 11] [nM] |
| --- | --- | --- | --- | --- | --- | --- | --- | --- | --- | --- | --- | --- | --- | --- | --- | --- |
| CCN1c2ncc(CCOc3ccc(/C=C/C(=O)O)c4ccccc34)cc2C(=O)N(C)c2ccc(Cl)nc21 [Entry 2016] | 100 to 1000 | 100 to 1000 | < 100 | 100 to 1000 | 100 to 1000 | < 100 | – | – | – | – | – | – | – | – | – | – |
| CCN1c2ncc(CCOc3ccc(/C=C/C(=O)O)c4ccccc34)cc2C(=O)Nc2c(C)cc(Cl)nc21 [Entry 2018] | 100 to 1000 | > 1000 | < 100 | – | 100 to 1000 | < 100 | 100 to 1000 | – | – | – | – | – | – | – | – | – |
| CCN1c2ncc(CCOc3ccc(CCC(=O)NN)c4ccccc34)cc2C(=O)N(C)c2cccnc21 [Entry 2020] | – | > 1000 | – | > 1000 | – | – | – | 100 to 1000 | < 100 | 100 to 1000 | < 100 | – | – | – | – | – |
| CCN1c2ncc(CCOc3ccc4cc(C(=O)NN)ccc4c3)cc2C(=O)N(C)c2cccnc21 [Entry 3002] | – | – | – | – | – | – | < 100 | – | – | – | – | 100 to 1000 | > 1000 | < 100 | 100 to 1000 | < 100 |
| CCN1c2ncc(CCOc3ccc4cc(C(=O)NC(C)(C)C(=O)O)ccc4c3)cc2C(=O)N(C)c2cccnc21 [Entry 3003] | – | – | – | – | – | – | 100 to 1000 | – | – | – | – | 100 to 1000 | > 1000 | < 100 | 100 to 1000 | < 100 |
| CCN1c2ncc(CCOc3ccc4cc(CC(=O)NN)ccc4c3)cc2C(=O)N(C)c2cccnc21 [Entry 3005] | – | – | – | – | – | – | < 100 | – | – | – | – | 100 to 1000 | 100 to 1000 | < 100 | < 100 | < 100 |
| CCN1c2ncc(CCOc3ccc(C(=O)O)c4c3CCC4)cc2C(=O)N(C)c2cccnc21 [Entry 4001] | – | – | – | – | – | – | 100 to 1000 | – | – | – | – | 100 to 1000 | > 1000 | < 100 | < 100 | < 100 |
| CCN1c2ncc(CCOc3ccc(C(=O)O)c4c3CCC4)cc2C(=O)N(C)c2ccc(Cl)nc21 [Entry 4002] | – | – | – | – | – | – | 100 to 1000 | – | – | – | – | < 100 | 100 to 1000 | < 100 | < 100 | < 100 |
| CCN1c2ncc(CCOc3ccc(C(=O)O)c4c3CCCC4)cc2C(=O)N(C)c2ccc(Cl)nc21 [Entry 5002] | – | – | – | – | – | – | > 1000 | – | – | – | – | 100 to 1000 | 100 to 1000 | < 100 | < 100 | < 100 |
| CCN1c2ncc(CCOc3ccc(C(=O)O)c4c3CCCC4)cc2C(=O)N(C)c2ccc(F)nc21 [Entry 5003] | – | – | – | – | – | – | > 1000 | – | – | – | – | 100 to 1000 | 100 to 1000 | < 100 | < 100 | < 100 |
| CCN1c2ncc(CCOc3ccc(C(=O)O)c4c3CCCC4)cc2C(=O)N(C)c2ccc(C)nc21 [Entry 5004] | – | – | – | – | – | – | > 1000 | – | – | – | – | 100 to 1000 | 100 to 1000 | < 100 | < 100 | < 100 |
| CCN1c2ncc(CCOc3ccc(C(=O)O)c4c3CCCC4)cc2C(=O)N(C)c2ccc(OC)nc21 [Entry 5005] | – | – | – | – | – | – | > 1000 | – | – | – | – | 100 to 1000 | 100 to 1000 | < 100 | < 100 | < 100 |
| CCN1c2ncc(CCOc3ccc(CC(=O)O)c4c3CCCC4)cc2C(=O)N(C)c2ccc(Cl)nc21 [Entry 5007] | – | – | – | – | – | – | 100 to 1000 | – | – | – | – | 100 to 1000 | 100 to 1000 | < 100 | < 100 | < 100 |
| CCN1c2ncc(CCOc3ccc(CC(=O)O)c4c3CCCC4)cc2C(=O)N(C)c2ccc(F)nc21 [Entry 5008] | – | – | – | – | – | – | > 1000 | – | – | – | – | 100 to 1000 | > 1000 | < 100 | < 100 | < 100 |
| CCN1c2ncc(CCOc3ccc(CCC(=O)O)c4c3CCCC4)cc2C(=O)N(C)c2cccnc21 [Entry 5009] | – | – | – | – | – | – | > 1000 | – | – | – | – | 100 to 1000 | > 1000 | < 100 | < 100 | < 100 |
